Tests used:
BnDGAT1(1–116)His6 [1] = target: T1, BnDGAT1(1–116)His6 (Brassica napus, UniProt Q9XGR5); assay: Lipidex-1000 radioligand binding, Scatchard plot; conditions: read-out: dissociation constant
T1 construct: gene DGAT1; N-terminal hydrophilic cytosolic fragment, residues 1-116, followed by AALE linker and C-terminal His6 (tag kept); pET26b(+), E. coli BL21(DE3), Ni-NTA purified; calculated mass 13,278 Da; self-associates to dimer and tetramer; contains peptide 21-LDRLHRRKSSSDSSN-35
T1 sequence (Q9XGR5 1-116): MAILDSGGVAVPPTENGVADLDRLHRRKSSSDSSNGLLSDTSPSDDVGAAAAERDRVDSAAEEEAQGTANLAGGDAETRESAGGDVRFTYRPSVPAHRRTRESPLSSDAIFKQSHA

BnDGAT1(1–116)His6 [2] = target: T1, BnDGAT1(1–116)His6; assay: Lipidex-1000 competition binding against [[…]-14C]oleoyl-CoA; conditions: 8 μM free CoA displacing 19 μM [1-14C]oleoyl-CoA, 0.2 μM protein

Row | Kd (BnDGAT1(1–116)His6 [1]) [µM] | SMILES | Lipidex-1000 competition binding against [1-14C]oleoyl-CoA (BnDGAT1(1–116)His6 [2])
1 | ~17 | CCCCCCCC/C=C\CCCCCCCC(=O)SCCNC(=O)CCNC(=O)[C@H](O)C(C)(C)COP(=O)(O)OP(=O)(O)OC[C@H]1O[C@@H](n2cnc3c(N)ncnc32)[C@H](O)[C@@H]1OP(=O)(O)O [oleoyl-CoA] | –
2 | – | CC(C)(COP(=O)(O)OP(=O)(O)OC[C@H]1O[C@@H](n2cnc3c(N)ncnc32)[C@H](O)[C@@H]1OP(=O)(O)O)[C@@H](O)C(=O)NCCC(=O)NCCS [CoA] | free CoA or oleoyl-CoA was effective in displacing a similar quantity of radiolabeled ligand
3 | ~2 | CCCCCCCC/C=C\CCCCCCCCCCCC(=O)SCCNC(=O)CCNC(=O)[C@H](O)C(C)(C)COP(=O)(O)OP(=O)(O)OC[C@H]1O[C@@H](n2cnc3c(N)ncnc32)[C@H](O)[C@@H]1OP(=O)(O)O [erucoyl-CoA] | –

Source: paper PMC1764880, “Acyl-CoA-binding and self-associating properties of a recombinant 13.3 kDa N-terminal fragment of diacylglycerol acyltransferase-1 from oilseed rape” (BMC Biochemistry, 2006)
